In patent publication US5239083A, “Indole derivatives which inhibit steroid 5α reductase” (Kyowa Hakko Kogyo Co., Ltd., priority 1991, dated 1993):

Key:
steroid 5α-reductase = assay: Inhibition effects on steroid 5α-reductase activity (rat prostate enzyme, [4-14C]-testosterone); assay type: biochemical, male rats; details: pH 6.5, 37° C., 20 minutes
Description: The measurements of inhibition effects of test compounds on steroid 5α-reductase activity were performed according to the method described by Liang et al. [J. Biol. Chem., 259, 734 (1984)] as follows.
The prostates from male rats were homogenated in three tissue volumes of 20 mM sodium phosphate buffer (pH 6.5; containing 0.32M sucrose and 1 mM dithiothreitol). The homogenate was centrifuged at 140,000 X g for one hour. The precipitate was suspended in the buffer described above and the suspension was centrifuged at 140,000 X g for one hour. The precipitate was resuspended in the buffer described above and the solution (30-50 mg protein/ml) was used as enzyme in following assay.
[4-^14 C]-testosterone (1.5 nmol), NADPH (75 nmol), the enzyme (1 mg protein) and test compound in a total volume of 0.5 ml of 40 mM sodium phosphate buffer [pH 6.5, containing 1 mM dithiothreitol] was incubated at 37° C. After 20 minutes the enzyme activity was stopped by the addition of 2 ml of ethyl acetate. The mixture was then centrifuged at 1,000 g, for 5 minutes. The ethyl acetate layer was transferred to another tube and evaporated to dryness. The steroids were taken up in 50 μl of ethyl acetate and separated by thin layer chromatography (TLC) on silica gel in a developing solvent (ethyl acetate: cyclohexane=1:1). The radioactivity of testosterone and dihydrotestosterone on the TLC plate was measured by a TLC scanner.

male dd mice = assay: Acute Toxicity Test (oral, mice); assay type: in vivo; details: oral 300 mg/kg, mortality observed seven days after administration
Description: Test compounds (300 mg/kg) were orally administered to male dd mice weighing 20±1 g (each group consists of three animals). Minimum lethal dose (MLD) was determined by observing mortality seven days after the administration.

Row | Compound | inhibition rate (%), 10^-7 M (steroid 5α-reductase) | Acute toxicity (MLD), minimum lethal dose (male dd mice)
1 | 4-{2-[3-[1-(1-butylpentyl)indol-5-yl]isocrotonoyl amino]phenoxy}butyric acid [Compound 20] | 79% | > 300 mg/kg
2 | C/C(=C\C(=O)Nc1ccccc1OCCCC(=O)O)c1ccc2c(ccn2C(c2ccccc2)c2ccccc2)c1 [Compound 2, 4-{2-[3-(1-benzhydrylindol-5-yl)isocrotonoylamino]phenoxy}butyric acid] | 95% | > 300 mg/kg
3 | CCCCCn1ccc2cc(/C(C)=C/C(=O)Nc3ccccc3OCCCC(=O)O)ccc21 [Compound 6, 4-{2-[3-(1-pentylindol-5-yl)isocrotonoylamino]phenoxy}butyric acid] | 81% | > 300 mg/kg
4 | CCCCCCn1ccc2cc(/C(C)=C/C(=O)Nc3ccccc3OCCCC(=O)O)ccc21 [Compound 7, 4-{2-[3-(1-hexylindol-5-yl)isocrotonoylamino]phenoxy}butyric acid] | – | > 300 mg/kg
5 | CCC(C)n1ccc2cc(/C(C)=C/C(=O)Nc3ccccc3OCCCC(=O)O)ccc21 (stereo not drawn) [Compound 15, 4-{2-[3-[1-(1-methylpropyl)indol-5-yl]isocrotonoylamino]phenoxy}butyric acid] | – | > 300 mg/kg
6 | CCCC(C)n1ccc2cc(/C(C)=C/C(=O)Nc3ccccc3OCCCC(=O)O)ccc21 (stereo not drawn) [Compound 16, 4-{2-[3-[1-(1-methylbutyl)indol-5-yl]isocrotonoylamino]phenoxy}butyric acid] | 88% | > 300 mg/kg
7 | CCCCC(C)n1ccc2cc(/C(C)=C/C(=O)Nc3ccccc3OCCCC(=O)O)ccc21 (stereo not drawn) [Compound 17, 4-{2-[3-[1-(1-methylpentyl)indol-5-yl]isocrotonoylamino]phenoxy}butyrate] | – | > 300 mg/kg
8 | CCCCC(CC)n1ccc2cc(/C(C)=C/C(=O)Nc3ccccc3OCCCC(=O)O)ccc21 (stereo not drawn) [Compound 18, 4-{2-[3-[1-(1-ethylpentyl)indol-5-yl]isocrotonoylamino]phenoxy}butyric acid] | 90% | > 300 mg/kg
9 | CCCC(c1ccccc1)n1ccc2cc(/C(C)=C/C(=O)Nc3ccccc3OCCCC(=O)O)ccc21 (stereo not drawn) [Compound 41, 4-{2-[3-[1-(α-propylbenzyl)indol-5-yl]isocrotonoylamino]phenoxy}butyric acid] | 90% | > 300 mg/kg
10 | CCCCC(c1ccccc1)n1ccc2cc(/C(C)=C/C(=O)Nc3ccccc3OCCCC(=O)O)ccc21 (stereo not drawn) [Compound 42, 4-{2-[3-[1-(α-butylbenzyl)indol-5-yl]isocrotonoylamino]phenoxy}butyric acid] | 89% | > 300 mg/kg
11 | CCCCCC(c1ccccc1)n1ccc2cc(/C(C)=C/C(=O)Nc3ccccc3OCCCC(=O)O)ccc21 (stereo not drawn) [Compound 43, 4-{2-[3-[1-(α-pentylbenzyl)indol-5-yl]isocrotonoylamino]phenoxy}butyric acid] | 74% | > 300 mg/kg
12 | C/C(=C\C(=O)Nc1ccccc1OCCCC(=O)O)c1ccc2c(ccn2C(c2ccccc2)C(C)C)c1 (stereo not drawn) [Compound 44, 4-{2-[3-[1-[α-(2-methylethyl)benzyl]indol-5-yl]isocrotonoylamino]phenoxy}butyric acid] | 78% | > 300 mg/kg
13 | C/C(=C\C(=O)Nc1ccccc1OCCCC(=O)O)c1ccc2c(ccn2C2CCCc3ccccc32)c1 (stereo not drawn) [Compound 45, 4-{2-[3-[1-(1,2,3,4-tetrahydro-1-naphthyl)indol-5-yl]isocrtonoylamino]phenoxy}butyric acid] | 77% | > 300 mg/kg
14 | C/C(=C\C(=O)Nc1ccccc1OCCCC(=O)O)c1ccc2c(ccn2C(c2ccccc2)c2ccccc2C)c1 (stereo not drawn) [Compound 52] | 90% | > 300 mg/kg
15 | C/C(=C\C(=O)Nc1ccccc1OCCCC(=O)O)c1ccc2c(ccn2C(c2ccccc2)c2ccc(C)cc2)c1 (stereo not drawn) [Compound 53] | 84% | > 300 mg/kg
16 | C/C(=C\C(=O)Nc1ccccc1OCCCC(=O)O)c1ccc2c(ccn2C(c2ccc(C)cc2)c2ccc(C)cc2)c1 [Compound 54, 4-{2-[3-[1-(4,4'-dimethylbenzhydryl)indol-5-yl]isocrotonoylamino]phenoxy}butyric acid] | 89% | > 300 mg/kg
17 | CCCCC(c1ccccc1C)n1ccc2cc(/C(C)=C/C(=O)Nc3ccccc3OCCCC(=O)O)ccc21 (stereo not drawn) [Compound 79, 4-{2-[3-[1-(α-butyl-2-methylbenzyl)indol-5-yl]isocrotonoylamino]phenoxy}butyric acid] | 90% | –
18 | C/C(=C\C(=O)Nc1ccccc1OCCCC(=O)O)c1ccc2c(ccn2C(c2ccccc2)c2ccc(C(F)(F)F)cc2)c1 (stereo not drawn) [Compound 83] | 90% | –
19 | C/C(=C\C(=O)Nc1ccccc1OCCCC(=O)O)c1ccc2c(ccn2C(c2ccccc2)c2cccnc2)c1 (stereo not drawn) [Compound 84] | 66% | –
20 | CCCC(CCC)n1ccc2cc(/C(=C/C(=O)Nc3ccccc3OCCCC(=O)O)CC)ccc21 [Compound 88, 4-{2-[3-[1-(1-propylbutyl)indol-5-yl]-cis-2-pentenoylamino]phenoxy}butyric acid] | 95% | –
21 | CCCC(CCC)n1ccc2cc(/C(=C/C(=O)Nc3ccc(F)cc3OCCCC(=O)O)CC)ccc21 [Compound 89, 4-{2-[3-[1-(1-propylbutyl)indol-5-yl]-cis-2-pentenoylamino]-5-fluorophenoxy}butyric acid] | 95% | –
22 | CCCCC(CCC)n1ccc2cc(/C(=C/C(=O)Nc3ccccc3OCCCC(=O)O)CC)ccc21 (stereo not drawn) [Compound 90, 4-{2-[3-[1-(1-propylpentyl)indol-5-yl]-cis-2-pentenoylamino]phenoxy}butyricacid] | 79% | –
23 | CCCCC(CCC)n1ccc2cc(/C(=C/C(=O)Nc3ccc(F)cc3OCCCC(=O)O)CC)ccc21 (stereo not drawn) [Compound 91, 4-{2-[3-[1-(1-propylpentyl)indol-5-yl]-cis-2-pentenoylamino]-5-fluorophenoxy}butyric acid] | 98% | –
24 | CC/C(=C\C(=O)Nc1ccccc1OCCCC(=O)O)c1ccc2c(ccn2C(CC(C)C)CC(C)C)c1 [Compound 92, 4-{2-[3-[1-[3-methyl-1-(2-methylpropyl)butyl]indol-5-yl]-cis-2-pentenoylamino]phenoxy}butyric acid] | 91% | –
25 | CC/C(=C\C(=O)Nc1ccccc1OCCCC(=O)O)c1ccc2c(ccn2C(c2ccccc2)c2ccccc2)c1 [Compound 93, 4-{2-[3-(1-benzhydrylindol-5-yl)-cis-2-pentenoylamino]phenoxy}butyric acid] | 94% | –
26 | CC/C(=C\C(=O)Nc1ccccc1OCCCC(=O)O)c1ccc2c(ccn2C(c2ccc(F)cc2)c2ccc(F)cc2)c1 [Compound 94, 4-{2-[3-[1-(4,4'-difluorobenzhydryl)indol-5-yl]-cis-2-pentenoylaminmo]phenoxy}butyric acid] | 97% | –
